*: point of attachment. NHNH2 = NN*
Key:
Type in all cases: cell-based
[1] = test system: A549 cells expressing EGFP; assay: EGFP-targeting siRNA delivery (GFP silencing vs siMOCK), A549; conditions: A549 cells
Description: (§1) To generate an EGFP expressing HeLa cell line, HeLa cells were transfected with EGFP pDNA (pEGFP-C1, Clontech) and stable transfectants were selected with 400 μg/mL of G-418 (Millipore). Green clones were selected by epifluorescence microscopy and tested for EGFP expression stability through several passages. […] All other EGFP-expressing cell lines were obtained in a similar way from parent non-EGFP-expressing cell lines.
Cells expressing EGFP were seeded in a 96 well plate the day before the experiment at a concentration of 50,000 cell/mL (100 μL/w) in DMEM+10% FBS+1% Gln-Abt. For robotic library screening, the delivery of an EGFP-targeting siRNA (EGFP: enhanced green fluorescent protein, Ambion® Silencer® GFP Positive Control siRNA (siGFP) (AM4626)) in six different cell lines expressing EGFP was performed. […] The mixture was shaken for 30 min at room temperature (rt) before the addition to the cells. The cell medium was aspirated, and cells were washed twice with PBS. Finally, 50 μL of the solution of siRNA/amphiphile complexes were added to the cells and incubated for 4 h. After transfection, the medium was replaced by 100 μL of fresh DMEM supplemented with 10% FBS. The fluorescence knockdown was quantified after 72 h in a plate reader, by comparison with cells transfected with a non-targeting siRNA control (siMOCK, Silencer™ Negative Control No. 1 siRNA (siMOCK) (AM4611)). EGFP knockdown was compared with Lipofectamine® RNAiMAX silencing efficiency (30-60% depending on cell line, defined with a numeric value in the below tables). All experiments were done in triplicate.
(§2) Tables 1-7: RLuc (pDNA) or EGFP (mRNA) expression levels were normalized to Lipofectamine reagents (value=1) and expressed as fold-times signal increase. In the case of siRNA, the siRNA treated cells fluorescence was compared with siMOCK control fluorescence, while Cas9-RNP mediated knockout was measured against the fluorescence of untreated cells. In both siRNA and Cas9-RNP, values are expressed as % fluorescence reduction. Amphiphile concentration was 5 μM in all cases. All experiments were performed in triplicate.
(§3) Tables 20-25 show the mean (triplicates) percentage of GFP-silencing, accounted by fluorescence intensity decrease relative to a non-targeting siRNA (siMOCK) control, measured after the transfection of siRNA by different amphiphiles at different concentrations in a variety of cell lines. Background values, accounted by untreated control cells, were subtracted for processing.

[2] = test system: HCT116 cells expressing EGFP; assay: EGFP-targeting siRNA delivery (GFP silencing vs siMOCK), HCT116
Description: as §1
Cells expressing EGFP were seeded in a 96 well plate the day before the experiment at a concentration of 50,000 cell/mL (100 μL/w) in DMEM+10% FBS+1% Gln-Abt. For robotic library screening, the delivery of an EGFP-targeting siRNA (EGFP: enhanced green fluorescent protein, Ambion® Silencer® GFP Positive Control siRNA (siGFP) (AM4626)) in six different cell lines expressing EGFP was performed. Amphiphilic molecules stock solutions in DMSO were diluted with DMEM and freshly mixed with siRNA stock solutions in DMEM prior to transfection experiments, to afford several complexes at different amphiphile concentration (2-10 μM) while maintaining a constant final siRNA concentration of 30 nM. The mixture was shaken for 30 min at room temperature (rt) before the addition to the cells. The cell medium was aspirated, and cells were washed twice with PBS. Finally, 50 μL of the solution of siRNA/amphiphile complexes were added to the cells and incubated for 4 h. After transfection, the medium was replaced by 100 μL of fresh DMEM supplemented with 10% FBS. The fluorescence knockdown was quantified after 72 h in a plate reader, by comparison with cells transfected with a non-targeting siRNA control (siMOCK, Silencer™ Negative Control No. 1 siRNA (siMOCK) (AM4611)). EGFP knockdown was compared with Lipofectamine® RNAiMAX silencing efficiency (30-60% depending on cell line, defined with a numeric value in the below tables). All experiments were done in triplicate.
as §2, §3

[3] = test system: ARPE19 cells expressing EGFP; assay: Cas9-RNP delivery against EGFP (gene editing, plate reader), ARPE19
Description: as §1
Cells expressing EGFP were seeded in a 96 well plate the day before the experiment at a concentration of 50,000 cell/mL (100 μL/w) in DMEM+10% FBS+1% Gln-Abt. For robotic library screening, the delivery of Cas9-RNP against EGFP (RNP designed to knock-out the gene encoding for the enhanced green fluorescent protein (EGFP)) was performed. For RNP assembly, 9.2 μL of crRNA and 9.2 μL of tracrRNA were mixed in 211.6 μL of Nuclease-Free Duplex Buffer (IDT), incubated for 5 min at 95° C. and slowly cooled at rt (see I. Lostalé-Seijo, et al. Peptide/Cas9 nanostructures for ribonucleoprotein cell membrane transport and gene edition, Chem. Sci., 2017). Cas9 protein was dissolved in DMEM at a final concentration of 4 μM and equal volumes of the RNA complex and Cas9 were mixed and incubated for 5 min at rt. 75 μL of the corresponding amphiphile concentrations were added to 5 μL of RNP at 2 μM. The mixture was shaken for 30 min at room temperature before the addition to the cells. The cell medium was aspirated, and cells were washed twice with PBS. Cells were covered with 30 μL of DMEM and 20 μL of the RNP/amphiphile complexes were added to the cells (final peptide concentrations=2.5, 5 and 10 μM; final Cas9-RNP concentration=50 nM) and incubated for 4 h. After the incubation, the medium was replaced by 100 μL of fresh DMEM supplemented with 10% FBS. The total EGFP fluorescence was quantified after 72 h in a plate reader (FIG. 2, Table 1 (right) and Table 6). All experiments were done in triplicate. […]
Tables 26-31 show the mean (triplicates) percentage of gene editing, accounted by GFP fluorescence intensity decrease (% of reduction), measured after the transfection of Cas9-RNP by different amphiphiles at different concentrations in a variety of cell lines. Background values, accounted by untreated control cells, were subtracted for processing.

Row | Substance | percentage of GFP-silencing relative to siMOCK ([1]; Dodecanal, 5 μM) [%] | percentage of GFP-silencing relative to siMOCK ([1]; Dodecanal, 10 μM) [%] | percentage of GFP-silencing relative to siMOCK ([1]; Dodecanal, 15 μM) [%] | percentage of GFP-silencing relative to siMOCK ([1]; Oleyl, 5 μM) [%] | percentage of GFP-silencing relative to siMOCK ([1]; Oleyl, 15 μM) [%] | percentage of GFP-silencing relative to siMOCK ([1]; Petroselinyl, 10 μM) [%] | percentage of GFP-silencing relative to siMOCK ([2]; Dodecanal, 5 μM) [%] | percentage of GFP-silencing relative to siMOCK ([2]; Dodecanal, 10 μM) [%] | percentage of GFP-silencing relative to siMOCK ([2]; Myristoleyl, 15 μM) [%] | percentage of GFP-silencing relative to siMOCK ([2]; Petroselinyl, 5 μM) [%] | percentage of gene editing, GFP fluorescence intensity decrease (% of reduction) ([3]; Dodecanal, 5 μM) [%] | percentage of gene editing, GFP fluorescence intensity decrease (% of reduction) ([3]; Oleyl, 5 μM) [%] | percentage of gene editing, GFP fluorescence intensity decrease (% of reduction) ([3]; Oleyl, 10 μM) [%] | percentage of gene editing, GFP fluorescence intensity decrease (% of reduction) ([3]; Palmitoleyl, 5 μM) [%] | percentage of gene editing, GFP fluorescence intensity decrease (% of reduction) ([3]; Palmitoleyl, 10 μM) [%] | percentage of gene editing, GFP fluorescence intensity decrease (% of reduction) ([3]; Palmitoleyl, 15 μM) [%] | percentage of GFP-silencing relative to siMOCK ([1]; Oleyl, 10 μM) [%] | percentage of GFP-silencing relative to siMOCK ([2]; Dodecanal, 15 μM) [%] | percentage of GFP-silencing relative to siMOCK ([1]; Myristoleyl, 10 μM) [%] | percentage of GFP-silencing relative to siMOCK ([1]; Myristoleyl, 15 μM) [%] | further results
1 | Ac-RK*LRK*K*L-NH2 (Ac-RK(NHNH2)LRK(NHNH2)K(NHNH2)L-NH2; not fully specified; printed as Ac-RK*LRK*K*L-NH2; also: K*2,K*5,K*6: native or modified lysine (ε-amide to a linker)) [Peptide 7.3] | 7 | 22 | 19 | 3 | 7 | 13 | 8 | 14 | 27 | 15 | 9 | 22 | 35 | 7 | 9 | 12 | – | – | – | – | percentage of GFP-silencing relative to siMOCK ([2]; Palmitoleyl, 10 μM): 23%; percentage of GFP-silencing relative to siMOCK ([2]; Petroselinyl, 15 μM): 11%; percentage of gene editing, GFP fluorescence intensity decrease (% of reduction) ([3]; Dodecanal, 10 μM): 14%; percentage of gene editing, GFP fluorescence intensity decrease (% of reduction) ([3]; Oleyl, 15 μM): 42%; percentage of gene editing, GFP fluorescence intensity decrease (% of reduction) ([3]; Petroselinyl, 5 μM): 25%; percentage of gene editing, GFP fluorescence intensity decrease (% of reduction) ([3]; Petroselinyl, 10 μM): 13%
2 | Ac-RRLK*RLLRRLK*RL-NH2 (Ac-RRLK(NHNH2)RLLRRLK(NHNH2)RL-NH2; not fully specified; printed as Ac-RRLK*RLLRRLK*RL-NH2; also: K*4,K*11: native or modified lysine (ε-amide to a linker)) [Peptide 13.2] | – | – | – | 19 | −21 | – | 25 | 41 | – | – | – | 13 | −7 | – | – | – | −2 | 18 | – | – | percentage of GFP-silencing relative to siMOCK ([2]; Oleyl, 5 μM): 45%; percentage of GFP-silencing relative to siMOCK ([2]; Oleyl, 10 μM): 43%; percentage of GFP-silencing relative to siMOCK ([2]; Oleyl, 15 μM): 10%
3 | Ac-RK*LRRLLRK*-NH2 (Ac-RK(NHNH2)LRRLLRK(NHNH2)-NH2; not fully specified; printed as Ac-RK*LRRLLRK*-NH2; also: K*2,K*9: native or modified lysine (ε-amide to a linker)) [Peptide 9.2] | 32 | 29 | 16 | – | – | – | −7 | 3 | −38 | – | −2 | – | – | – | – | – | – | 11 | −6 | −14 | percentage of GFP-silencing relative to siMOCK ([1]; Myristoleyl, 5 μM): −1%; percentage of GFP-silencing relative to siMOCK ([2]; Myristoleyl, 10 μM): −9%; percentage of gene editing, GFP fluorescence intensity decrease (% of reduction) ([3]; Dodecanal, 15 μM): −17%
4 | Ac-RHLK*RLK*RRLK*RL-NH2 (Ac-RHLKRLKRRLKRL-NH2; not fully specified (residues 4, 7, 11); printed as Ac-RHLK*RLK*RRLK*RL-NH2; also: linker on K* not given here) [13(Arg-His)] | – | 28 | 18 | 23 | 15 | 20 | 65 | – | – | 56 | 25 | 14 | −6 | 25 | −12 | 20 | 22 | – | 17 | 5 | percentage of GFP-silencing relative to siMOCK ([1]; Palmitoleyl, 15 μM): 14%; percentage of GFP-silencing relative to siMOCK ([1]; Petroselinyl, 15 μM): 11%; percentage of GFP-silencing relative to siMOCK ([2]; Myristoleyl, 5 μM): 62%; percentage of GFP-silencing relative to siMOCK ([2]; Myristoleyl, 10 μM): 24%; percentage of GFP-silencing relative to siMOCK ([2]; Palmitoleyl, 5 μM): 64%; percentage of gene editing, GFP fluorescence intensity decrease (% of reduction) ([3]; Dodecanal, 15 μM): 21%; percentage of gene editing, GFP fluorescence intensity decrease (% of reduction) ([3]; Myristoleyl, 10 μM): 15%; percentage of gene editing, GFP fluorescence intensity decrease (% of reduction) ([3]; Myristoleyl, 15 μM): 9%; percentage of gene editing, GFP fluorescence intensity decrease (% of reduction) ([3]; Petroselinyl, 15 μM): 15%

From patent US20250304623A1, “PEPTIDES FOR INTRACELLULAR DELIVERY” (UNIVERSIDADE DE SANTIAGO DE COMPOSTELA, priority 2022, published 2025)
